Experimental data as given in the supplement of paper PMC11208160.

Assay: recombinant barcode read abundance after kanamycin selection (control-corrected) (log10(CPM+1)); higher = more efficient recombination; sequences stand for … in AGTGCAGAGAAAATCGGCCAGTTTTCTCTGCCTGCAGTCCGCATGCCGT…AGATTTATGCAGCGGACTGCCTTTCTCCCAAAGTGATAAACCGGACAGTATCATGGACCGGTTTTCCCGGTAATCCGTATTTGCAAGGTTGGTTTCACT; site = the 11-nt target
Method in brief: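 Recombination efficiency comes from barcode counts at recombinant junctions, converted to counts per million, averaged and corrected against the control. Values appear as log10(CPM+1). They were obtained from a pooled E. coli screen in which each oligo paired a target with an IS621 bridge RNA target-binding loop, and cells were plated in duplicate on chloramphenicol/ampicillin LB agar or on chloramphenicol/ampicillin/kanamycin with 0.1 mM IPTG.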
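Further: IS621 recombinase and bridge RNA in Escherichia coli cells.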

Sequence	recombinant barcode read abundance (log10)
ATACCACCTTGGGTTCTAACCTGTTGCCT (site AAACCACCTAG)	0.278
CTGCTACCTTGGGTTCTAACCTGTTGCCT (site CCGCTACCTAG)	0.386
GGTTGTCCTTGGGTTCTAACCTGTTGCTA (site GATTGTCCTAA)	0.182
AGTACTACTTGGGTTCTAACCTGTTGCCT (site AGTACTACTAG)	0.25
TGGCACTCTTGGGTTCTAACCTGTTGCTT (site TGGCACTCTAA)	1.02
ACGCCTCCTTGGGTTCTAACCTGTTGCTG (site ACGTCTCCTCA)	0.175
GTCGACACTTGGGTTCTAACCTGTTGCCT (site GTCGACACTAG)	1.5
AGCGCGCCTTGGGTTCTAACCTGTTGCTG (site GAGTACACTGC)	0.00819
ACTTGAACTTGGGTTCTAACCTGTTGCCT (site ACATGAACTAG)	0.419
CTTGCTCCTTGGGTTCTAACCTGTTGCAT (site AGACGGACTTG)	0.0627
AGTCGGACTTGGGTTCTAACCTGTTGCTT (site AGTCATACTAA)	0.446
CTACTAGCTTGGGTTCTAACCTGTTGCAT (site CTACTAGCTAT)	1.18
CCGCTATCTTGGGTTCTAACCTGTTGCCT (site CCGGTATCTAG)	0.104
GCATATACTTGGGTTCTAACCTGTTGCGT (site AGTCCCGCTTG)	0
CCAGTAGCTTGGGTTCTAACCTGTTGCGG (site CCAGTAGCTCC)	1.01
GGGGCGTCTTGGGTTCTAACCTGTTGCTG (site TCCATAACTAG)	0.175
ACCGTAGCTTGGGTTCTAACCTGTTGCCT (site ACCGTACCTAG)	0.33
CGCTTGTCTTGGGTTCTAACCTGTTGCCT (site CGCTAGTCTAG)	0.0576
ATACCTCCTTGGGTTCTAACCTGTTGCCT (site ATACCTCCTAG)	1.69
TCACTCTCTTGGGTTCTAACCTGTTGCCT (site TAACTCTCTAG)	0.111
GAGAACACTTGGGTTCTAACCTGTTGCCT (site TAGAACACTAG)	0.852
GACTGGCCTTGGGTTCTAACCTGTTGCTT (site GACTGGGCTCA)	0.154

Sequence	recombinant barcode read abundance (log10)
GTTCGGACTTGGGTTCTAACCTGTTGCGG (site GATCGGACTCC)	0.634
AGGAGCCCTTGGGTTCTAACCTGTTGCGA (site CGGAGCCCTCC)	0.0589
ATTGGGTCTTGGGTTCTAACCTGTTGCCT (site ATTGGGTCTAG)	0.818
GTAGTAGCTTGGGTTCTAACCTGTTGCCT (site GTAGTAGCTAG)	2.06
CGCCGAACTTGGGTTCTAACCTGTTGCCT (site AGCCGAACTAG)	0.0619
TCATTCGCTTGGGTTCTAACCTGTTGCCT (site TCCTTAGCTAG)	0.186
TATTTGTCTTGGGTTCTAACCTGTTGCCA (site TATTTGTCTTG)	0.156
CTTACGGCTTGGGTTCTAACCTGTTGCCT (site CTTACAGCTAG)	0.186
CCGCCGGCTTGGGTTCTAACCTGTTGCCT (site CCGCCTGCTAG)	0.0797
AGTTTCGCTTGGGTTCTAACCTGTTGCGG (site AGTATCGCTCC)	0.215
GTCGGCGCTTGGGTTCTAACCTGTTGCCT (site GTGGGCGCTAG)	0.531
TCCCGATCTTGGGTTCTAACCTGTTGCCT (site TCCCGATCTAG)	0.502
GCCAAGGCTTGGGTTCTAACCTGTTGCCT (site AGTTTCACTTA)	0.0355
TAGGTCACTTGGGTTCTAACCTGTTGCAT (site TAGTTCACTAT)	0.0621
TTACATGCTTGGGTTCTAACCTGTTGCCT (site AAGATCACTCC)	0.281
GCTAAGACTTGGGTTCTAACCTGTTGCTG (site GCTAAGACTCA)	1.93
AAGGTGTCTTGGGTTCTAACCTGTTGCCT (site AAAGTGTCTAG)	1.97
CTATGTCCTTGGGTTCTAACCTGTTGCGT (site GGATGTCCTAC)	0.228
CGATTACCTTGGGTTCTAACCTGTTGCCT (site CGATTAGCTAG)	0.38
AGGCGCCCTTGGGTTCTAACCTGTTGCAT (site AGGCGCCCTGT)	0.219
AAGGTGTCTTGGGTTCTAACCTGTTGCCT (site AAGGTGTCTAG)	3.29
TACTAAACTTGGGTTCTAACCTGTTGCCT (site TACTAAACTAG)	0.267

Sequence	recombinant barcode read abundance (log10)
CTACGTCCTTGGGTTCTAACCTGTTGCTC (site CTACGTCCTTA)	0.0289
GGTTGTCCTTGGGTTCTAACCTGTTGCTA (site GGTTGTCCTTA)	0.181
ACGGAGTCTTGGGTTCTAACCTGTTGCTA (site ACGGAGTCTTA)	1.3
GTACGCACTTGGGTTCTAACCTGTTGCCT (site GTACGCACTAG)	0.994
ACAGGTTCTTGGGTTCTAACCTGTTGCCT (site ATAGGTTCTAG)	0.0396
CACATACCTTGGGTTCTAACCTGTTGCCG (site CACATACCTCG)	0.443
GAGCCGCCTTGGGTTCTAACCTGTTGCAT (site GAGCCGCCTAT)	1.48
CAGCCCTCTTGGGTTCTAACCTGTTGCCT (site CCGCCCTCTAG)	0.883
GTGATCCCTTGGGTTCTAACCTGTTGCTG (site GTGATCCCTCA)	1.87
AATTAGACTTGGGTTCTAACCTGTTGCCT (site GATTAGACTAG)	0.226
CAAATTACTTGGGTTCTAACCTGTTGCCT (site CAGATGACTAG)	0.161
GCCACGCCTTGGGTTCTAACCTGTTGCAG (site GCCTCGCCTCT)	0.389
CGAGGGACTTGGGTTCTAACCTGTTGCCT (site CGAGGGTCTAG)	0.056
GGTTGACCTTGGGTTCTAACCTGTTGCGG (site GGTTGTCCTCC)	0.0522
AGGTACACTTGGGTTCTAACCTGTTGCAC (site TTCAGACCTAG)	0.0924
ACACTAACTTGGGTTCTAACCTGTTGCCT (site AAACTAACTAG)	0.071
TCTACTTCTTGGGTTCTAACCTGTTGCCT (site TCTACGTCTAG)	0.0937
CCGCCTGCTTGGGTTCTAACCTGTTGCCT (site CCGCCTGCTAG)	0.0789
AATTAGACTTGGGTTCTAACCTGTTGCCT (site TATTAGACTAG)	0.125
AGACTCCCTTGGGTTCTAACCTGTTGCCT (site AGACTCCCTAG)	1.22
CAAGTCCCTTGGGTTCTAACCTGTTGCCT (site CAAGTCCCTAG)	1.9
TAACTTACTTGGGTTCTAACCTGTTGCCT (site TAGCTTACTCG)	0.0408

Sequence	recombinant barcode read abundance (log10)
GAGCAGTCTTGGGTTCTAACCTGTTGCCT (site GAGGAGTCTAG)	0.117
CTCATTCCTTGGGTTCTAACCTGTTGCAT (site CTCATTCCTAG)	0.112
AAAGGGTCTTGGGTTCTAACCTGTTGCCT (site AAAGGGTCTAG)	1.8
GTCTCTACTTGGGTTCTAACCTGTTGCCG (site GTCACTACTCG)	0.234
CGAGTGACTTGGGTTCTAACCTGTTGCAG (site CGAGTGACTCT)	1.32
GAAATTCCTTGGGTTCTAACCTGTTGCCT (site GAAAGTCCTAG)	0.132
CGCTCCTCTTGGGTTCTAACCTGTTGCCT (site GGCTCCTCTAG)	0.0456
CACCCTACTTGGGTTCTAACCTGTTGCCT (site CACCCTACTAG)	1.26
GGAGAAGCTTGGGTTCTAACCTGTTGCCT (site GGAGAAGCTAG)	2.11
GAATCTACTTGGGTTCTAACCTGTTGCCT (site GAATCTACTAG)	0.512
TTAGCATCTTGGGTTCTAACCTGTTGCCT (site TTAGCTTCTAG)	0.0531
TCCCACACTTGGGTTCTAACCTGTTGCCA (site TCCCACACTTG)	1.33
AGCGAGGCTTGGGTTCTAACCTGTTGCCT (site AGCGAGGCTAG)	0.188
AAGTCCACTTGGGTTCTAACCTGTTGCTT (site TAGTCCACTTA)	0.093
GACTTGACTTGGGTTCTAACCTGTTGCCT (site GACTTGCCTAG)	0.0736
TCATGAACTTGGGTTCTAACCTGTTGCCT (site TTATGATCTAG)	0.0186
GAGGGCCCTTGGGTTCTAACCTGTTGCCG (site GAGGGCCCTCG)	1.96
CTGGTGTCTTGGGTTCTAACCTGTTGCCT (site CTGGCGTCTAG)	0.248
AGAGGGTCTTGGGTTCTAACCTGTTGCTT (site CGAGGGTCTAA)	0.186
AGACCACCTTGGGTTCTAACCTGTTGCCT (site ATACCACCTAG)	0.847
